Literature values, collected in patent US9333171B2, “Controlled-release CNS modulating compositions and methods for the treatment of otic disorders” (Otonomy, Inc., priority 2008, dated 2016).

What was measured:
V2-R = settings: infusion into the scala tympani
guinea pigs = settings: chronic administration in guinea pigs

Structure (SMILES)	Effect on Meniere's disease symptoms (V2-R)	Induction of endolymphatic hydrops (guinea pigs)
Cc1ccccc1C(=O)Nc1ccc(C(=O)N2CCCC(N(C)C)c3ccccc32)cc1 (centres unmarked) [OPC-31260]	marked reduction of Meniere's disease symptoms	–
NC(=O)CC[C@@H]1NC(=O)[C@H](Cc2ccccc2)NC(=O)[C@H](Cc2ccc(O)cc2)NC(=O)[C@@H](N)CSSC[C@@H](C(=O)N2CCC[C@H]2C(=O)N[C@@H](CCCN=C(N)N)C(=O)NCC(N)=O)NC(=O)[C@H](CC(N)=O)NC1=O [VP, vasopressin]	–	induce endolymphatic hydrops
